The values below come from ChEMBL document CHEMBL5226390, “Synthesis and Structure-Activity Analysis of Icaritin Derivatives as Potential Tumor Growth Inhibitors of Hepatocellular Carcinoma Cells” (J Nat Prod, 2023).

Some results are limits rather than exact numbers.

For orientation: IC50 means the point on the concentration scale where inhibition reaches its midpoint. In general, solubility refers to the concentration that dissolves in the medium under given conditions. Read a high solubility as a readily soluble substance.

The subject of one data set is SMMC-7721. As to the kind of experiment: Antiproliferative activity against human SMMC-7721 cells assessed as reduction in cell viability incubated for 48 hrs by MTT assay. The data set is classed as functional, cell-based. A general note: Tetrazolium dyes change colour on reduction, which living cells bring about.
The test system of another data set is Hep 3B2. The data set is described as follows: Antiproliferative activity against human Hep3B cells assessed as reduction in cell viability incubated for 48 hrs by MTT assay. The data set is classed as functional, cell-based.
Data set [1] is described as follows: Solubility of the compound in water incubated for 24 hrs under stirring conditions by HPLC analysis. The data set is classed as physicochemical.
A further data set concerns HepG2. As to the kind of experiment: Antiproliferative activity against human HepG2 cells assessed as reduction in cell viability incubated for 48 hrs by MTT assay. Particulars: HepG2, 48 h; call rule not given here. The data set is classed as functional, cell-based.
The mark [2] stands for this setting: Homo sapiens, SMMC-7721, 48 h, read-out: IC50.

`COc1ccc(-c2oc3c(CC=C(C)C)c(O)cc(O)c3c(=O)c2O)cc1` [ICARITIN]: the IC50 with SMMC-7721 (setting [2]) is above 10 µM; in the data set with Hep 3B2, 0.9 µM; with HepG2, above 10 µM. In data set [1], this compound returned a solubility at 24 h below 10 µg/mL.

With `CCN(CC)C[C@@H](O)COc1cc(O)c2c(=O)c(O[C@H]3O[C@H](C)[C@@H](O)[C@H](O)[C@@H]3O)c(-c3ccc(OC)cc3)oc2c1CC=C(C)C`, the values for the half-inhibitory concentration (IC50) in the data set with SMMC-7721 (setting [2]), in the data set on Hep 3B2 and with HepG2 were above 10 µM, 8.3 µM and above 10 µM, respectively.

`CCN(CC)CCCCCCOc1cc(O)c2c(=O)c(O[C@H]3O[C@H](C)[C@@H](O)[C@H](O)[C@@H]3O)c(-c3ccc(OC)cc3)oc2c1CC=C(C)C`: the IC50 with SMMC-7721 (setting [2]) was found to be 6.5 µM; in the data set on Hep 3B2, 8.9 µM; in the data set on HepG2 it was 2.5 µM.

On to `COc1ccc(-c2oc3c(CC=C(C)C)c(OCCCN4CCOCC4)cc(O)c3c(=O)c2O[C@H]2O[C@H](C)[C@@H](O)[C@H](O)[C@@H]2O)cc1`, for which the half-inhibitory concentration (IC50) in the data set with SMMC-7721 (setting [2]) was above 10 µM; with Hep 3B2, 8 µM; with HepG2 it was 7.4 µM.

`COc1ccc(-c2oc3c(CC=C(C)C)c(OCCN4CCC(O)CC4)cc(O)c3c(=O)c2O[C@H]2O[C@H](C)[C@@H](O)[C@H](O)[C@@H]2O)cc1`: the IC50 entry was “Not Active” with SMMC-7721 (smmc-7721), above 10 µM in the data set with Hep 3B2 and above 10 µM in the data set on HepG2.

As to `CCN(CC)CCCOc1cc(O)c2c(=O)c(O[C@H]3O[C@H](C)[C@@H](O)[C@H](O)[C@@H]3O)c(-c3ccc(OC)cc3)oc2c1CC=C(C)C`, the half-maximal inhibitory concentration (IC50) in the data set with SMMC-7721 (setting [2]) is above 10 µM; in the data set on Hep 3B2, above 10 µM; in the data set on HepG2, 5.5 µM.

Consider `COc1ccc(-c2oc3c(CC=C(C)C)c(OCCCN(C)C)cc(O)c3c(=O)c2O[C@H]2O[C@H](C)[C@@H](O)[C@H](O)[C@@H]2O)cc1`, for which the IC50 result in the data set with SMMC-7721 (smmc-7721) was “Not Active”; in the data set with Hep 3B2 it was above 10 µM; with HepG2, above 10 µM.

With `COc1ccc(-c2oc3c(CC=C(C)C)c(OCCOCCN4CCOCC4)cc(O)c3c(=O)c2O[C@H]2O[C@H](C)[C@@H](O)[C@H](O)[C@@H]2O)cc1`, the results for the IC50 result with SMMC-7721 (smmc-7721), in the data set on Hep 3B2 and with HepG2 were “Not Active”, above 10 µM and above 10 µM, respectively.

Turning to `CCN(CC)CCOCCOCCOc1cc(O)c2c(=O)c(O[C@H]3O[C@H](C)[C@@H](O)[C@H](O)[C@@H]3O)c(-c3ccc(OC)cc3)oc2c1CC=C(C)C`, the IC50 with SMMC-7721 (setting [2]), in the data set with Hep 3B2 and in the data set on HepG2 was above 10 µM each time.

As for `COc1ccc(-c2oc3c(CC=C(C)C)c(OCCCN4CCC(C)CC4)cc(O)c3c(=O)c2O[C@H]2O[C@H](C)[C@@H](O)[C@H](O)[C@@H]2O)cc1`, the concentration for half-maximal inhibition (IC50) result in the data set with SMMC-7721 (smmc-7721) is “Not Active”; in the data set on Hep 3B2 it was above 10 µM; in the data set on HepG2 it was above 10 µM.
